Where two headings read alike, the source gives them in different places.
Tests used:
IvoA = biological target: T1, IvoA (Emericella nidulans, UniProt C8V7P4); assay: Biocatalytic stereoinversion or deracemization of tryptophan and substituted tryptophans by IvoA (chiral-HPLC); assay type: biochemical, Aspergillus nidulans; details: for ee (%): ee of D-enantiomer, 1.5 mM substrates, 5 μM IvoA, 5 mM ATP, 10 mM MgCl2, 100 mM K2HPO4 buffer, pH 7.5
T1 construct: The full-length wild-type IvoA and mutants were expressed in S. cerevisiae JHY686 strain; octahistidine (His8) (N); made in house; host or cells: Saccharomyces cerevisiae JHY686
Protocol: […] The solvent was removed in vaccuo by speedvac and the residue was dissolved in ethanol and analyzed by chiral-HPLC by using a Crownpak® CR(+) column (150 mm×4 mm×3.5 μm, Daicel) at room temperature. The mobile phase was aq. HClO4 1% (w/v) supplemented with 15% (v/v) MeOH and the flow rate was 1.0 ml/min.

IvoA A domain = biological target: T2, IvoA A domain (Emericella nidulans, UniProt C8V7P4, S785A); assay: Hydroxylamine-based colorimetric adenylation assay; assay type: biochemical, Aspergillus nidulans
T2 construct: The full-length wild-type IvoA and mutants were expressed in S. cerevisiae JHY686 strain; octahistidine (His8) (N); made in house; host or cells: Saccharomyces cerevisiae JHY686
Protocol: FIG. 9 provides data showing Hydroxylamine-based colorimetric assay for studying substrate specificity of IvoA A domain. The reaction condition is 2 μM of IvoA-T^0+3 mM of ATP+0.1 mM of carboxylic acid substrate+15 mM hydroxylamine+15 mM MgCl2 in Tris buffer (pH 8.0). The reaction is quenched after 3 hrs by addition of equivalent volume (150 μL) of stopping solution (10% (w/v) FeCl3.H2O and 3.3% (w/v) trichloroacetic acid dissolved in 0.7 M HCl). The precipitated enzyme was removed by centrifugation and the supernatant was measured for its absorbance at 540 nm.
FIG. 19 provides data showing Adenylation assay of IvoA A domain with substituted tryptophan amino acids. The reaction was performed similarly according to the assay described in the caption of FIG. 9.

IvoA-C = biological target: T3, IvoA-C (Emericella nidulans, UniProt C8V7P4); assay: Thioesterase assay of standalone IvoA-C with synthetic thioester substrates; assay type: biochemical, Aspergillus nidulans; details: pH 6.9, boiled enzyme control
T3 construct: were incubated with standalone IvoA C domain at pH 6.9; hexahistidine (His6) with TEV protease site (N); made in house; host or cells: E. coli BL21(DE3)
Protocol: FIG. 17 provides data and associated schematics for an In vitro assay of IvoA-C with synthetic thioester substrates. Synthetic thioester substrates (DL-tryptophan-S—N-acetylcysteamine, DL-Trp-SNAC: D-tryptophan-S-pantatheine, D-Trp-pant) were incubated with standalone IvoA C domain at pH 6.9. Enzymes were boiled to measure the nonenzymatic hydrolysis. Free tryptophan and tryptophanyl thioesters were separated by HPLC.
The thioesterase activity assay of standalone IvoA-C was performed in ammonium acetate buffer (20 mM, pH=6.9). Typically, 5 mM synthetic substrate (5% DMSO) was incubated with 50 μM enzyme. The reaction was analyzed by HPLC. Boiled enzyme was used as control to measure the background nonenzymatic hydrolysis.

[1] = Apparent steady-state kinetics of L-tryptophan stereoinversion by IvoA and mutants (chiral-HPLC quantification of D-tryptophan); assay type: biochemical, Aspergillus nidulans; details: for kcat^app / Km: L-tryptophan stereoinversion; for Km: read-out: Km^app
Protocol: FIG. 11 provides data showing the Apparent steady-state kinetics of IvoA catalyzed stereoinversion. […] The kinetic constants were shown in the main text. For WT, 1 μM enzyme was used in each assay and the reaction was quenched after 2 min. For E0 mutant, 10 μM enzyme was used in each assay and the reaction was quenched after 60 min. For C0 mutant, 50 μM enzyme was used in each assay and the reaction was quenched after 60 min.
Chiral-resolution allowed us to determine the apparent steady-state kinetics by quantifying D-tryptophan formation (Table 1, FIG. 11). […] Both E and C domains are catalytically important for IvoA, as inactivating either domain by mutating the catalytic histidine residues (H963A and H1428A) substantially compromised the apparent turnover number kcat (420-fold by E^0 while 4700-fold by C^0).
The ATP-dependent stereoinversion activity was typically performed with 2-5 μM IvoA, 1 mM L/D-tryptophan, 3 mM ATP and 10 mM MgCl2 in 100 mM phosphate buffer (pH 7.5), and the reaction was quenched by mixing with 5-volume of methanol. The solvent was removed in vaccuo by speedvac and the residue was dissolved in ethanol and analyzed by chiral-HPLC by using a Crownpak® CR(+) column (150 mm×4 mm×3.5 μm, Daicel) at room temperature. The mobile phase was aq. HClO4 1% (w/v) supplemented with 15% (v/v) MeOH and the flow rate was 1.0 ml/min.

[2] = enzyme >50 μM, overnight incubation
Protocol: The reaction condition is 100 μM of IvoA+2 mM of ATP+1 mM of L-tryptophan+1 mM of AcCoA+5 mM MgCl2 in phosphate buffer (pH 7.5).
Acetyltryptophan acetyltransferase activity was performed by incubating 1-100 μM IvoA with 1 mM D-tryptophan or other substrates with 1 mM acetyl-CoA or 1 mM acetyl-phosphate in 100 mM phosphate buffer (pH 7.5). The reaction mixture was incubated at room temperature and the reaction was quenched at different time interval by mixing with 5-fold volume of methanol. The mixture was clarified by centrifugation to remove protein and salts, and the supernatant was dried in vaccuo by using speedvac. The residue was dissolved in methanol and subjected to LC-MS analysis. For ATP-dependent acetyltransferase activity, 1 mM LD-tryptophan, 5 mM ATP, 1 mM CoA and 5 mM MgCl2 were used.

T1 sequence (C8V7P4 other isoform, or with tags, fused parts or gaps): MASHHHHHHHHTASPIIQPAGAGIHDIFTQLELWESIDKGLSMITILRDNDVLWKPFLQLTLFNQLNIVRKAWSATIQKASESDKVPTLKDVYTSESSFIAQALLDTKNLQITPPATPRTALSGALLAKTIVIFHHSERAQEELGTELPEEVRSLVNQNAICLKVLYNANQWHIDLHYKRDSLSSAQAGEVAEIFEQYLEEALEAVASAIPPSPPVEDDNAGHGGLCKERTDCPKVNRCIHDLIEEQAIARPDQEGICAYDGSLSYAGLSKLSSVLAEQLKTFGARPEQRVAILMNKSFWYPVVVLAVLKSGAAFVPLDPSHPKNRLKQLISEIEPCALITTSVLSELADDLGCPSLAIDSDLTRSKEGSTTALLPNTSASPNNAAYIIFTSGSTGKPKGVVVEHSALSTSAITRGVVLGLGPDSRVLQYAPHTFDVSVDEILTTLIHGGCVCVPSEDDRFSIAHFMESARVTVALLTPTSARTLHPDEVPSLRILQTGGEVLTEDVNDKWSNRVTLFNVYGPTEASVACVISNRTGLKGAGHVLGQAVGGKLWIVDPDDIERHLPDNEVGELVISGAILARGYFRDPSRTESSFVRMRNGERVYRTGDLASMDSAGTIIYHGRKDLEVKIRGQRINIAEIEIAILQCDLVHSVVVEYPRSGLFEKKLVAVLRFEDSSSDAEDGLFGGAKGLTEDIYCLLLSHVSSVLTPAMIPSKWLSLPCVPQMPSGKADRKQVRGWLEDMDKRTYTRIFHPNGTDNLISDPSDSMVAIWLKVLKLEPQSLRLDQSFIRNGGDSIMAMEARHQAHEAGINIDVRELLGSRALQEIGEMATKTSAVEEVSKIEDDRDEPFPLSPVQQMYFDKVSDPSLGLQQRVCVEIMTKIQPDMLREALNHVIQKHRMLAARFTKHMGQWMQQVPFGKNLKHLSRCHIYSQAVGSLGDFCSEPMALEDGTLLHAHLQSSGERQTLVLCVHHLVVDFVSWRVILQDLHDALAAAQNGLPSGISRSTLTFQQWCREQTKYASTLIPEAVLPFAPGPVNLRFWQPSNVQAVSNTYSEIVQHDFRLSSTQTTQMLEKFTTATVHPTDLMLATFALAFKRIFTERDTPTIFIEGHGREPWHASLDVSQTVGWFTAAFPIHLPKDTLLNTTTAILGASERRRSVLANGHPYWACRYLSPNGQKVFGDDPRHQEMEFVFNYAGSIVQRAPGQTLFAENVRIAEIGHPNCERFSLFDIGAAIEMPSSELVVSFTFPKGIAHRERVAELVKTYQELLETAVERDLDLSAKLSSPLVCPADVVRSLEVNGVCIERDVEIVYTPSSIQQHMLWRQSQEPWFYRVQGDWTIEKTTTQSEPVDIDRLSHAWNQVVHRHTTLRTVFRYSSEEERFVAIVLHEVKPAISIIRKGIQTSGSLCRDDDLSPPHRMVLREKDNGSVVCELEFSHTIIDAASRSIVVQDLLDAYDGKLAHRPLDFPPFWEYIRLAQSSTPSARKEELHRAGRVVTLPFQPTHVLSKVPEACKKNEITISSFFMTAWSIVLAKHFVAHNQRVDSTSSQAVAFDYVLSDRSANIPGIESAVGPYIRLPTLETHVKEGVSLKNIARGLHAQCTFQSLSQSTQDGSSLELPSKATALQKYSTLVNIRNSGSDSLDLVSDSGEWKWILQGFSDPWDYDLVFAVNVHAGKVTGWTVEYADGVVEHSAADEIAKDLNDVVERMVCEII
T3 sequence (C8V7P4 1325-1477): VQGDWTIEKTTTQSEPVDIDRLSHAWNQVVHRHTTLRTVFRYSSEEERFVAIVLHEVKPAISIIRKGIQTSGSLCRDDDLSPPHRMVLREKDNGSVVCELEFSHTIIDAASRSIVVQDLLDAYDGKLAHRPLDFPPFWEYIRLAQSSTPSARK
T2 sequence (C8V7P4 whole entry S785A): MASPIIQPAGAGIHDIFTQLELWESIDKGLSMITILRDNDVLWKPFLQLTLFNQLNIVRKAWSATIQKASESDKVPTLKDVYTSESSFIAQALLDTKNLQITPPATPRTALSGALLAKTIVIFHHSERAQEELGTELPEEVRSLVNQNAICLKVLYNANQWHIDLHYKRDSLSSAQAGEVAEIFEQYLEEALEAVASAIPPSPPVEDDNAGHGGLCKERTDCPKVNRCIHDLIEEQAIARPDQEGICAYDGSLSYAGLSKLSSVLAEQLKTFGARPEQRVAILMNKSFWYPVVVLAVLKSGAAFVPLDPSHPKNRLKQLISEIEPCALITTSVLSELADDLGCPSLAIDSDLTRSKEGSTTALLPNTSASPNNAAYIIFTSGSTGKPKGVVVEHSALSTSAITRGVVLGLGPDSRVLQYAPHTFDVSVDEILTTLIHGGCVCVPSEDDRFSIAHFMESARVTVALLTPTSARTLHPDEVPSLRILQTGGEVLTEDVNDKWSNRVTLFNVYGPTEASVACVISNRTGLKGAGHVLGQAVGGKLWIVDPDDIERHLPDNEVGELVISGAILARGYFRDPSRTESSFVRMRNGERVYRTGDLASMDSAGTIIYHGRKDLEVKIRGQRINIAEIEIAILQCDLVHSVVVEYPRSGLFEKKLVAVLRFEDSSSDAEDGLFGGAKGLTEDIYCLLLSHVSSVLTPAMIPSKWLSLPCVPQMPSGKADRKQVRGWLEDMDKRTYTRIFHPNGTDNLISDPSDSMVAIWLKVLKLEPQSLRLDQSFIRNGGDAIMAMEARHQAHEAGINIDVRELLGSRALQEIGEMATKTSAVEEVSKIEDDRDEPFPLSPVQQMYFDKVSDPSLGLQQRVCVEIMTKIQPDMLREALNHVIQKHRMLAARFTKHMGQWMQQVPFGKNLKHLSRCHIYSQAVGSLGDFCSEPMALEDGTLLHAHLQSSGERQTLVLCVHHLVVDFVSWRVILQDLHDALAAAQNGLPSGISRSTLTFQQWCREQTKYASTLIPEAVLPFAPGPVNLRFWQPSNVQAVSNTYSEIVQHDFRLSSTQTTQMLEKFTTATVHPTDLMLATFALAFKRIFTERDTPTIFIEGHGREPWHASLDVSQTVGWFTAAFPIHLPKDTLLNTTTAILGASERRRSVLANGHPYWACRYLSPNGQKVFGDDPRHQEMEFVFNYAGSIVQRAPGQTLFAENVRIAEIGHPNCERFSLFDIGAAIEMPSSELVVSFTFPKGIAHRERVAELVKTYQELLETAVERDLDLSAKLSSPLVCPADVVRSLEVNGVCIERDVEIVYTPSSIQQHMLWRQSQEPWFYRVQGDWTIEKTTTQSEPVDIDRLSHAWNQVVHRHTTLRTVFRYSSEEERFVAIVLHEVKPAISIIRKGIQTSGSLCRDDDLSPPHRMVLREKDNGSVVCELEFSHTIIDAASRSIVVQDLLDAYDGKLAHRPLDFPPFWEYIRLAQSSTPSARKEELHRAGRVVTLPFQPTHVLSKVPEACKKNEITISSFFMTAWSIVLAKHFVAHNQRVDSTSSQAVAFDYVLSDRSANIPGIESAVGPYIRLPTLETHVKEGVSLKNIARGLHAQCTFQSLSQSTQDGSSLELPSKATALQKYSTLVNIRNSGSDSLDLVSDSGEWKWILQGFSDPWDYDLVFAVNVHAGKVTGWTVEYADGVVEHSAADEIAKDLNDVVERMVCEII

In the case of `Cc1[nH]c2ccccc2c1CC(N)C(=O)O` (racemic) [Entry 13, 2-Me-DL-tryptophan], the “conversion by IvoA / substrate quality” value (IvoA) is reported as “No conversion”, the “ee (%)” value (IvoA) is reported as 1.3% and the “activation by A domain” value (IvoA A domain) is reported as “inefficient activation”.
For `NC(Cc1c[nH]c2ccc(Cl)cc12)C(=O)O` (stereo not shown) [Entry 8], the “ee (%)” value (IvoA) was over 99%.
With `NC(Cc1c[nH]c2ccc(Br)cc12)C(=O)O` (stereo not shown) [Entry 10] the “ee (%)” value (IvoA) was over 99%.
For `NC(Cc1c[nH]c2cc(Cl)ccc12)C(=O)O` (stereo not shown) [Entry 9], the “ee (%)” value (IvoA) was 98%.
In the case of `N[C@H](Cc1c[nH]c2ccccc12)C(=O)O` [D-tryptophan], the “conversion by IvoA / substrate quality” value (IvoA) is reported as “cannot convert”.
In the case of `Cc1cccc2[nH]cc(CC(N)C(=O)O)c12` (stereo not shown) [Entry 14], the “ee (%)” value (IvoA) is reported as over 99%.
In the case of `NC(Cc1c[nH]c2ccc(F)cc12)C(=O)O` (stereo not shown) [Entry 6], the “ee (%)” value (IvoA) is reported as over 99%.
In the case of `N[C@@H](Cc1c[nH]c2ccccc12)C(=O)O` [Entry 1, L-tryptophan], the “time to complete conversion of L-tryptophan to D-tryptophan” value (IvoA; 1 mM L-tryptophan, chiral-HPLC) is reported as 3 h, the “ee (%)” value (IvoA) is reported as over 99% and the “activation by A domain” value (IvoA A domain) is reported as “preferred substrate”.
In the case of `CC(C)(CO)[C@@H](O)C(=O)NCCC(=O)NCCSC(=O)[C@H](N)Cc1c[nH]c2ccccc12` [D-Trp-pant, D-tryptophan-S-pantatheine], the “hydrolysis by IvoA-C versus nonenzymatic” value (IvoA-C) is reported as “not good substrate”.
In the case of “WT: wild-type single-module nonribosomal peptide synthetase IvoA from Aspergillus nidulans”, the “kcat^app” value [1] is reported as 0.633 ± 0.05 s⁻¹, the “kcat^app” value ([1]; listed as IvoA) is reported as 0.633 s⁻¹ and the Km ([1]; listed as IvoA) is reported as about 50 µM. For the same compound, the Km [1] was 50 ± 10 µM, the Ki ([1]; substrate inhibition by L-tryptophan, read-out: Ki^app (substrate inhibition)) was 4 mM and the “kobs^app of N-acetyl-D-tryptophan formation” value [2] was under 0.1 h⁻¹.
In the case of `NC(Cc1c[nH]c2c(Br)cccc12)C(=O)O` (stereo not shown) [Entry 12], the “conversion by IvoA / substrate quality” value (IvoA) is reported as “poor substrates” and the “ee (%)” value (IvoA) is reported as 87%.
In the case of `NC(Cc1c[nH]c2cccc(F)c12)C(=O)O` (stereo not shown) [Entry 5], the “ee (%)” value (IvoA) is reported as over 99%.
For `COc1ccc2[nH]cc(C[C@H](N)C(=O)O)c2c1` [Entry 2, 5-OMe-L-tryptophan], the “ee (%)” value (IvoA) was over 99%.
With `NC(Cc1c[nH]c2cc(Br)ccc12)C(=O)O` (stereo not shown) [Entry 11] the “conversion by IvoA / substrate quality” value (IvoA) was “poor substrates” and the “ee (%)” value (IvoA) was 75%.
With `NC(Cc1c[nH]c2ccc([N+](=O)[O-])cc12)C(=O)O` (stereo not shown) [Entry 4] the “conversion by IvoA / substrate quality” value (IvoA) was “poor substrates” and the “ee (%)” value (IvoA) was 44%.
With `Cc1ccc2[nH]cc(CC(N)C(=O)O)c2c1` (stereo not shown) [Entry 15] the “ee (%)” value (IvoA) was over 99%.
With `CC(=O)NCCSC(=O)C(N)Cc1c[nH]c2ccccc12` (racemic) [DL-Trp-SNAC, DL-tryptophan-S—N-acetylcysteamine] the “hydrolysis by IvoA-C versus nonenzymatic” value (IvoA-C) was “not good substrate”.
With `Cc1ccc2c(CC(N)C(=O)O)c[nH]c2c1` (stereo not shown) [Entry 16] the “ee (%)” value (IvoA) was 97%.
For `NC(Cc1c[nH]c2cc(F)ccc12)C(=O)O` (stereo not shown) [Entry 7], the “ee (%)” value (IvoA) was over 99%.
With `N#Cc1ccc2[nH]cc(CC(N)C(=O)O)c2c1` (stereo not shown) [Entry 3] the “conversion by IvoA / substrate quality” value (IvoA) was “poor substrates” and the “ee (%)” value (IvoA) was 63%.
With `Cc1cccc2c(CC(N)C(=O)O)c[nH]c12` (stereo not shown) [Entry 17] the “ee (%)” value (IvoA) was over 99%.
